Test results: ChEMBL document CHEMBL3044697, “Natural products-based insecticidal agents 13. Semisynthesis and insecticidal activity of novel phenazine derivatives of 4β-acyloxypodophyllotoxin modified in the E-ring against Mythimna separata Walker in vivo” (2013)
The source made the active and inactive calls. No cut-off for these calls is given here.

Legend:
Mythimna separata [1] = assay: Insecticidal activity against Mythimna separata (Oriental armyworm) pre-third-instar larvae fed on 1 mg/ml compound pre-treated wheat leaves assessed as induction of malformation of pupae measured during pupation period by leaf-dipping method; type: functional, organism-based
Mythimna separata [2] = assay: Insecticidal activity against Mythimna separata (Oriental armyworm) pre-third-instar larvae fed on 1 mg/ml compound pre-treated wheat leaves assessed as insect mortality by leaf-dipping method; type: functional, organism-based; details: TDE = time-dependent effect
Mythimna separata [3] = assay: Insecticidal activity against Mythimna separata (Oriental armyworm) pre-third-instar larvae fed on 1 mg/ml compound pre-treated wheat leaves assessed as insect mortality measured after 34 days by leaf-dipping method; type: functional
Mythimna separata [4] = assay: Insecticidal activity against Mythimna separata (Oriental armyworm) pre-third-instar larvae fed on 1 mg/ml compound pre-treated wheat leaves assessed as insect mortality measured after 20 days by leaf-dipping method; type: functional
Mythimna separata [5] = assay: Insecticidal activity against Mythimna separata (Oriental armyworm) pre-third-instar larvae fed on 1 mg/ml compound pre-treated wheat leaves assessed as insect mortality measured after 10 days by leaf-dipping method; type: functional
Mythimna separata [6] = assay: Insecticidal activity against Mythimna separata (Oriental armyworm) pre-third-instar larvae fed on 1 mg/ml compound pre-treated wheat leaves assessed as induction of malformation of pupae with imperfect wings measured during emergence period by leaf-dipping method; type: functional, organism-based

Compound	Activity (Mythimna separata [1])	Activity (Mythimna separata [2])	mortality (Mythimna separata [3]) [%]	mortality (Mythimna separata [4]) [%]	mortality (Mythimna separata [5]) [%]	Activity (Mythimna separata [6])
CCCCCCCCCCCC(=O)O[C@@H]1c2cc3c(cc2[C@@H](c2cc(OC)c4nc5ccccc5nc4c2)[C@H]2C(=O)OC[C@@H]21)OCO3	Active	tde	34.5	6.9	0	
COc1cc([C@@H]2c3cc4c(cc3[C@@H](OC(C)=O)[C@H]3COC(=O)[C@H]23)OCO4)cc2nc3ccccc3nc12		tde	41.4	20.7	6.7	
CC(=O)O[C@@H]1C[C@H](O)[C@@]23CO[C@@H](O)[C@]1(C)[C@@H]2C[C@@H](O)[C@]1(C)[C@@H]3C(=O)[C@H](OC(C)=O)[C@@]2(C)[C@H](c3ccoc3)C[C@H]3O[C@]321 [TOOSENDANIN]		tde	51.7	27.6	10	
COc1cc([C@@H]2c3cc4c(cc3[C@@H](OC(=O)c3cccc(C)c3)[C@H]3COC(=O)[C@H]23)OCO4)cc2nc3ccccc3nc12		tde	41.4	13.8	6.7	Active
CCCCCCCCCCC(=O)O[C@@H]1c2cc3c(cc2[C@@H](c2cc(OC)c4nc5ccccc5nc4c2)[C@H]2C(=O)OC[C@@H]21)OCO3	Active	tde	37.9	10.3	0	Active
COc1cc([C@@H]2c3cc4c(cc3[C@@H](O)[C@H]3COC(=O)[C@H]23)OCO4)cc2nc3ccccc3nc12	Active	tde	31	13.8	3.3	
CCCC(=O)O[C@@H]1c2cc3c(cc2[C@@H](c2cc(OC)c4nc5ccccc5nc4c2)[C@H]2C(=O)OC[C@@H]21)OCO3		tde	37.9	10.3	3.3	Active
COc1cc([C@@H]2c3cc4c(cc3[C@@H](O)[C@H]3COC(=O)[C@H]23)OCO4)cc(OC)c1O [4'-DEMETHYLEPIPODOPHYLLOTOXIN]		tde	37.9	13.8	6.7	
COc1cc([C@@H]2c3cc4c(cc3[C@@H](OC(=O)c3ccc([N+](=O)[O-])cc3)[C@H]3COC(=O)[C@H]23)OCO4)cc2nc3ccccc3nc12		tde	37.9	13.8	3.3	
COc1cc([C@@H]2c3cc4c(cc3[C@@H](OC(=O)c3cccc(Cl)c3)[C@H]3COC(=O)[C@H]23)OCO4)cc2nc3ccccc3nc12	Active	tde	41.4	17.2	6.7	
COc1cc([C@@H]2c3cc4c(cc3[C@@H](OC(=O)c3ccc(Cl)c([N+](=O)[O-])c3)[C@H]3COC(=O)[C@H]23)OCO4)cc2nc3ccccc3nc12		tde	55.2	27.6	10	Active
COc1cc([C@@H]2c3cc4c(cc3[C@H](O)[C@H]3COC(=O)[C@H]23)OCO4)cc(OC)c1OC [PODOFILOX]		tde	34.5	17.2	6.7	
COc1cc([C@@H]2c3cc4c(cc3[C@@H](OC(=O)c3ccccc3)[C@H]3COC(=O)[C@H]23)OCO4)cc2nc3ccccc3nc12		tde	24.1	17.2	3.3	
COc1cc([C@@H]2c3cc4c(cc3[C@@H](OC(=O)Cc3ccc5ccccc5c3)[C@H]3COC(=O)[C@H]23)OCO4)cc2nc3ccccc3nc12		tde	51.7	6.9	3.3	Active
CCC(=O)O[C@@H]1c2cc3c(cc2[C@@H](c2cc(OC)c4nc5ccccc5nc4c2)[C@H]2C(=O)OC[C@@H]21)OCO3		tde	55.2	27.6	20	Active
COc1cc([C@@H]2c3cc4c(cc3[C@@H](OC(=O)c3ccccc3Cl)[C@H]3COC(=O)[C@H]23)OCO4)cc2nc3ccccc3nc12	Active	tde	51.7	20.7	10	
CCCCCCCCCCCCCCCC(=O)O[C@@H]1c2cc3c(cc2[C@@H](c2cc(OC)c4nc5ccccc5nc4c2)[C@H]2C(=O)OC[C@@H]21)OCO3		tde	27.6	6.9	0	
COc1cc([C@@H]2c3cc4c(cc3[C@@H](OC(=O)c3ccc(Cl)cc3)[C@H]3COC(=O)[C@H]23)OCO4)cc2nc3ccccc3nc12		tde	48.3	17.2	0	
